In ChEMBL document CHEMBL1201862, “PubChem BioAssay data set” (2004):
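Tested at 5 concentrations; 48 h exposure; 96-well plates; endpoints linearly interpolated, else capped at highest concentration. GI50 = concentration required for 50% inhibition of growth.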 Activity calls are given as the source filed them. Rule as the data show it: active = GI50 up to about 1.1 µM and inactive = higher.

Experiments:
Experiment in all cases: NCI-60 cell line screen, 48 h
OVCAR-4 = system: OVCAR-4
SK-MEL-2 = system: SK-MEL-2
MCF7 = system: MCF7
OVCAR-5 = system: OVCAR-5
COLO 205 = system: COLO 205
HCT-116 = system: HCT-116
MDA-MB-435 = system: MDA-MB-435
RPMI-8226 = system: RPMI-8226
OVCAR-3 = system: OVCAR-3
HOP-92 = system: HOP-92
ACHN = system: ACHN
SNB-19 = system: SNB-19
NCI-H522 = system: NCI-H522
HT-29 = system: HT-29
HCC 2998 = system: HCC 2998
UACC-257 = system: UACC-257
IGROV-1 = system: IGROV-1
M14 = system: M14
786-0 = system: 786-0
CCRF-CEM = system: CCRF-CEM

Row | Compound | GI50 (OVCAR-4) | GI50 (SK-MEL-2) | GI50 (MCF7) | GI50 (OVCAR-5) | GI50 (COLO 205) | GI50 (HCT-116) | GI50 (MDA-MB-435) | GI50 (RPMI-8226) | GI50 (OVCAR-3) | GI50 (HOP-92) | GI50 (ACHN) | GI50 (SNB-19) | GI50 (NCI-H522) | GI50 (HT-29) | GI50 (HCC 2998) | GI50 (UACC-257) | GI50 (IGROV-1) | GI50 (M14) | GI50 (786-0) | GI50 (CCRF-CEM)
1 | COc1cc(/C=N/c2nc3cc4sc(/N=C/c5cc(OC)c(OC)c(OC)c5)nc4cc3s2)cc(OC)c1OC | > 100 µM (inactive) | 72.4 µM (inactive) | 53.8 µM (inactive) | > 100 µM (inactive) | 28.4 µM (inactive) | 39.4 µM (inactive) | 39.1 µM (inactive) | 51.2 µM (inactive) | 32.7 µM (inactive) | > 100 µM (inactive) | > 100 µM (inactive) | > 100 µM (inactive) | 45.8 µM (inactive) | 52.7 µM (inactive) | > 100 µM (inactive) | 73.6 µM (inactive) | > 100 µM (inactive) | 66.8 µM (inactive) | 49.2 µM (inactive) | –
2 | Cc1ccc(Nc2nc(C)c(C(=O)CC(=O)C(=O)Nc3ccc(Cl)cc3)s2)cc1 | – | > 100 µM (inactive) | > 100 µM (inactive) | > 100 µM (inactive) | > 100 µM (inactive) | > 100 µM (inactive) | > 100 µM (inactive) | > 100 µM (inactive) | > 100 µM (inactive) | > 100 µM (inactive) | > 100 µM (inactive) | > 100 µM (inactive) | > 100 µM (inactive) | – | > 100 µM (inactive) | > 100 µM (inactive) | > 100 µM (inactive) | > 100 µM (inactive) | > 100 µM (inactive) | > 100 µM (inactive)
3 | C[C@@]1(c2ccccc2)O[C@@H]2C[C@H]3[C@@H]4CCC5=CC(=O)C=C[C@]5(C)[C@@]4(F)[C@@H](O)C[C@]3(C)[C@]2(C(=O)CO)O1 [AMCINAFIDE] | 15 µM (inactive) | 14.4 µM (inactive) | 13.9 µM (inactive) | 15.6 µM (inactive) | 14.4 µM (inactive) | 14.6 µM (inactive) | 18.7 µM (inactive) | < 0.01 µM (active) | 15 µM (inactive) | 22.3 µM (inactive) | 18.1 µM (inactive) | 24.7 µM (inactive) | 11.5 µM (inactive) | 17 µM (inactive) | 17.3 µM (inactive) | 17.6 µM (inactive) | 17.7 µM (inactive) | 16.1 µM (inactive) | 16.3 µM (inactive) | –
4 | CC(C)NCC(O)c1ccc(O)c2ncccc12 (centres undefined) | 68.5 µM (inactive) | 52.8 µM (inactive) | 7.28 µM (inactive) | > 100 µM (inactive) | 18.7 µM (inactive) | 26.4 µM (inactive) | > 100 µM (inactive) | 49.1 µM (inactive) | 16 µM (inactive) | > 100 µM (inactive) | 42.3 µM (inactive) | > 100 µM (inactive) | 47.2 µM (inactive) | 36.4 µM (inactive) | 46 µM (inactive) | 50 µM (inactive) | 33.5 µM (inactive) | 42.4 µM (inactive) | 45.5 µM (inactive) | –
5 | Cl.O=C(O)c1cccnc1 | > 100 µM (inactive) | – | > 100 µM (inactive) | 64.4 µM (inactive) | > 100 µM (inactive) | > 100 µM (inactive) | > 100 µM (inactive) | > 100 µM (inactive) | > 100 µM (inactive) | > 100 µM (inactive) | > 100 µM (inactive) | > 100 µM (inactive) | > 100 µM (inactive) | > 100 µM (inactive) | > 100 µM (inactive) | > 100 µM (inactive) | > 100 µM (inactive) | > 100 µM (inactive) | > 100 µM (inactive) | > 100 µM (inactive)
